# Data: US10196393B2, “JAK inhibitors containing a 4-membered heterocyclic amide” (THERAVANCE BIOPHARMA R&D IP, LLC, priority 2017, dated 2019)
# Where two headings read alike, the source gives them in different places.
# Key:
# JAK2 = JAK2 (Homo sapiens (Human), UniProt O60674); assay: Biochemical JAK kinase assay (LanthaScreen), JAK2; conditions: converted from pIC50 with Cheng-Prusoff equation
# Description: Assay 1: Biochemical JAK Kinase Assays
# A panel of four LanthaScreen JAK biochemical assays (JAK1, 2, 3 and Tyk2) were carried in a common kinase reaction buffer (50 mM HEPES, pH 7.5, 0.01% Brij-35, 10 mM MgCl2, and 1 mM EGTA). Recombinant GST-tagged JAK enzymes and a GFP-tagged STAT1 peptide substrate were obtained from Life Technologies.
# Serially diluted compounds were pre-incubated with each of the four JAK enzymes and the substrate in white 384-well microplates (Corning) at ambient temperature for 1 h. ATP was subsequently added to initiate the kinase reactions in 10 μL total volume, with 1% DMSO. […] The plates were allowed to incubate at ambient temperature for 1 h before being read on the EnVision reader (Perkin Elmer).
# For dose-response analysis, percent inhibition data were plotted vs. compound concentrations, and IC50 values were determined from a 4-parameter robust fit model with the Prism software (GraphPad Software). Results were expressed as pIC50 (negative logarithm of IC50) and subsequently converted to pKi (negative logarithm of dissociation constant, Ki) using the Cheng-Prusoff equation.
# [1] = system: IL-13 induced STAT6 phosphorylation in BEAS-2B human lung epithelial cells; assay: Cellular JAKI potency assay (AlphaScreen), BEAS-2B; assay type: cell-based; conditions: Homo sapiens, BEAS-2B cells
# Description: Assay 2: Cellular JAKI Potency Assay
# The AlphaScreen JAKI cellular potency assay was carried out by measuring interleukin-13 (IL-13, R&D Systems) induced STAT6 phosphorylation in BEAS-2B human lung epithelial cells (ATCC). The anti-STAT6 antibody (Cell Signaling Technologies) was conjugated to AlphaScreen acceptor beads (Perkin Elmer), while the anti-pSTAT6 (pTyr641) antibody (Cell Signaling Technologies) was biotinylated using EZ-Link Sulfo-NHS-Biotin (Thermo Scientific).
# BEAS-2B cells were grown at 37° C. in a 5% CO2 humidified incubator in 50% DMEM/50% F-12 medium (Life Technologies) supplemented with 10% FBS (Hyclone), 100 U/mL penicillin, 100 μg/mL streptomycin (Life Technologies), and 2 mM GlutaMAX (Life Technologies). On day 1 of the assay, cells were seeded at a 7,500 cells/well density in white poly-D-lysine-coated 384-well plates (Corning) with 25 μL medium, and were allowed to adhere overnight in the incubator. On day 2 of the assay, the medium was removed and replaced with 12 μL of assay buffer (Hank's Balanced Salt Solution/HBSS, 25 mM HEPES, and 1 mg/ml bovine serum albumin/BSA) containing dose-responses of test compounds. Compounds were serially diluted in DMSO and then diluted another 1000-fold in media to bring the final DMSO concentration to 0.1%. Cells were incubated with test compounds at 37° C. for 1 h, and followed by the addition of 12 μl of pre-warmed IL-13 (80 ng/mL in assay buffer) for stimulation. After incubating at 37° C. for 30 min, the assay buffer (containing compound and IL-13) was removed, and 10 μL of cell lysis buffer (25 mM HEPES, 0.1% SDS, 1% NP-40, 5 mM MgCl2, 1.3 mM EDTA, 1 mM EGTA, and supplement with Complete Ultra mini protease inhibitors and PhosSTOP from Roche Diagnostics). The plates were shaken at ambient temperature for 30 min before the addition of detection reagents. A mixture of biotin-anti-pSTAT6 and anti-STAT6 conjugated acceptor beads was added first and incubated at ambient temperature for 2 h, followed by the addition of streptavidin conjugated donor beads (Perkin Elmer). After a minimum of 2 h incubation, the assay plates were read on the EnVision plate reader. AlphaScreen luminescence signals were recorded and utilized to calculate the percent inhibition values based on DMSO and background controls.
# For dose-response analysis, percent inhibition data were plotted vs. compound concentrations, and IC50 values were determined from a 4-parameter robust fit model with the Prism software. Results may also be expressed as the negative logarithm of the IC50 value, pIC50.
# Test compounds having a lower IC50 value or higher pIC50 value in this assay show greater inhibition of IL-13 induced STAT6 phosphorylation.
# [2] = system: IFNγ induced CXCL10 and CXCL9 secretion in EpiAirway tissue cultures; assay: Inhibition of IFNγ induced chemokines CXCL9 and CXCL10 in human 3D airway cultures; assay type: cell-based; conditions: 192 h, Day 8, ±STDV
# Description: (§1) Assay 7: Inhibition of IFNγ and IL-27 Induced Chemokines CXCL9 and CXCL10 in Human 3D Airway Cultures
# (§2) EpiAirway tissue cultures were obtained from Mattek (AIR-100). Cultures were derived from asthmatic donors. In a cell culture insert, human derived tracheal/bronchial epithelial cells were grown and differentiated on a porous membrane support, allowing an air-liquid interface with warmed culture medium below the cells and a gaseous test atmosphere above. Tissues were cultured in maintenance media (Mattek, AIR-100-MM) in a 37° C., 5% CO2 humidified incubator. Four donors were tested. On Day 0, tissue cultures were treated with test compounds at 10 μM, 1 μM and/or 0.1 μM. Compounds were diluted in dimethyl sulfoxide (DMSO, Sigma) to a final concentration of 0.1%. DMSO at 0.1% was used as a vehicle control. Test compounds were incubated with cultures for 1 hour at 37° C., 5% CO2, followed by the addition of pre-warmed media containing IFNγ (R&D Systems) or IL-27 (R&D Systems) at a final concentration at 100 ng/ml. Tissue cultures were maintained for 8 days. Media was replaced every 2 days with fresh media containing compounds and IFNγ or IL-27. On Day 8, tissue cultures and supernatants were collected for analysis. Supernatant samples were assayed for CXCL10 (IP-10) and CXCL9 (MIG) using luminex analysis (EMD Millipore). Data is expressed as % Inhibition +/−standard deviation (±STDV). Percent inhibition was determined by compound inhibitory potency against IFNγ or IL-27 induced CXCL10 or CXCL9 secretion compared to vehicle treated cells. Data is the average from 3 or 4 donors. […] The compound of example 2 was able to inhibit IFNγ induced CXCL9 secretion by 93%±13 (at 10 μM) and 24%±49 (at 1 μM) when compared to vehicle.
# [3] = system: IL-27 induced CXCL10 and CXCL9 secretion in EpiAirway tissue cultures; assay: Inhibition of IL-27 induced chemokines CXCL9 and CXCL10 in human 3D airway cultures; assay type: cell-based; conditions: 192 h, Day 8, ±STDV
# Description: as §1, §2
# [4] = read-out: % inhibition of IL-27 induced CXCL9 secretion
# [5] = read-out: % inhibition of IL-27 induced CXCL10 secretion
# Chain of JAK2 (O60674 whole entry): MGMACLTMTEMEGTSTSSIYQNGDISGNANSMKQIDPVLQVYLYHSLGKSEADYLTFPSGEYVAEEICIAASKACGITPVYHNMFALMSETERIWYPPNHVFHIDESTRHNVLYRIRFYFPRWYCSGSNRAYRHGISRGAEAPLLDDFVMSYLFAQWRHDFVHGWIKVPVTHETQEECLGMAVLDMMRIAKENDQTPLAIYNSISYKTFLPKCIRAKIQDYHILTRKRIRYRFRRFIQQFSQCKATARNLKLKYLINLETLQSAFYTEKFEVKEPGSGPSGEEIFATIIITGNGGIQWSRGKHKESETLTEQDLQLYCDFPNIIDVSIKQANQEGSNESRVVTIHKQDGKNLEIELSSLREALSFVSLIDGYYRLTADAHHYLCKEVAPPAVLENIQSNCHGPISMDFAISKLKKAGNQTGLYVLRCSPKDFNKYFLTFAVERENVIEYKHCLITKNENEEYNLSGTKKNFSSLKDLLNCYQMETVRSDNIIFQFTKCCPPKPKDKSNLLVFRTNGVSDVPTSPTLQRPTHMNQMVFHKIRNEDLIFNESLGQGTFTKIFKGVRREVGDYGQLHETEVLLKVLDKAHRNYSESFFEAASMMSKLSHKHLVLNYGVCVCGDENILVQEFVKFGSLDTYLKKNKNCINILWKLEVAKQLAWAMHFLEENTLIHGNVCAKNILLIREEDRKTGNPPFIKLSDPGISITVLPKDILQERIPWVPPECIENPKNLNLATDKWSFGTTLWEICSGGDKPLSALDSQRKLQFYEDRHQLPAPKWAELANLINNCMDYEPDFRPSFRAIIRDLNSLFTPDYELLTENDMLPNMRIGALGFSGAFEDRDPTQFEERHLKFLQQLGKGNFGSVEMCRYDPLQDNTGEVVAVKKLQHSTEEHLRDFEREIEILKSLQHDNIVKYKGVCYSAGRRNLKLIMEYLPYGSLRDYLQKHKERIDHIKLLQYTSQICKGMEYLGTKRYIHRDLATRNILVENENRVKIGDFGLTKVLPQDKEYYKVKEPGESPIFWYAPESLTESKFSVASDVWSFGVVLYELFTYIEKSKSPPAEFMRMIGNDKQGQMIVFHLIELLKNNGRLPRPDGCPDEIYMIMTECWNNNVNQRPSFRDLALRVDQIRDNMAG
structure (smiles),measurement,setting,value
"CCc1cc(O)c(F)cc1-c1ccc2c(-c3nc4c([nH]3)CN(C(C)C)[C@H](C(=O)N3CC(N(C)C)C3)C4)n[nH]c2c1 [Example 2, (S)-(3-(dimethylamino)azetidin-1-yl)(2-(6-(2-ethyl-5-fluoro-4-hydroxyphenyl)-1H-indazol-3-yl)-5-isopropyl-4,5,6,7-tetrahydro-3H-imidazo[4,5-c]pyridin-6-yl)methanone]",Ki,JAK2,0.02 nM
same,IC50,[1],4.1 nM
same,inhibition at 0.1 µM,[2]; at 0.1 μM,6%
same,inhibition at 1 µM,[2]; at 1 μM,24%
same,inhibition at 10 µM,"[2]; 3 or 4 donors, read-out: % inhibition of IFNγ induced CXCL10 secretion",101%
same,inhibition at 10 µM,[2]; read-out: % inhibition of IFNγ induced CXCL9 secretion,93%
same,inhibition at 0.1 µM,[3]; [4],57%
same,inhibition at 0.1 µM,[3]; [5],69%
same,inhibition at 1 µM,[3]; [4],97%
same,inhibition at 1 µM,[3]; [5],101%
same,inhibition at 10 µM,[3]; [4],100%
same,inhibition at 10 µM,[3]; [5],108%
